Results reported in patent US7517874B2 (priority 2007, dated 2009).
Where two headings read alike, the source gives them in different places.

Columns and labels:
[1] = target: T1, rat CB2 receptor (rCB2) (Rattus norvegicus, UniProt Q9QZN9); assay: cell-based; type: cell-based; conditions: for +/− RCB2: agonist or inverse agonist at rCB2
T1 sequence (Q9QZN9 1-360): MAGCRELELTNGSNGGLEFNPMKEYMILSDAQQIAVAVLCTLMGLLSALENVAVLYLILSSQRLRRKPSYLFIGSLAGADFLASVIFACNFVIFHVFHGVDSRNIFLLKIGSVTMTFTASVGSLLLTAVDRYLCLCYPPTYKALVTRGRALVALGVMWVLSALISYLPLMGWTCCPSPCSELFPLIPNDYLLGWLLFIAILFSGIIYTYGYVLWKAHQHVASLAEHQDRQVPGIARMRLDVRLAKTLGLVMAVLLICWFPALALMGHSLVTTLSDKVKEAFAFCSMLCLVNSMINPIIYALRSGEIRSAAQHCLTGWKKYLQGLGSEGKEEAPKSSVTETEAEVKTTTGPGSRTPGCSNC
How it was run: (§1)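 First, cells in IBMX-containing HEPES-buffered HBSS are raised to elevated cAMP with 2-8 μM NKH-477 for 30 min. Data are normalised to the forskolin and forskolin + 1 μM CP55,940 controls.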

[2] = target: human CB1 receptor (hCB1) (Homo sapiens, UniProt P21554); assay: cell-based; type: cell-based; conditions: for +/− HCB1: agonist or inverse agonist at hCB1
How it was run: as §1

[3] = groups >100 nM-10 μM and >10 μM, cAMP, CHO-K1 hCB1, read-out: EC50 HCB1

Sequence of human CB1 receptor (hCB1) (P21554 whole entry): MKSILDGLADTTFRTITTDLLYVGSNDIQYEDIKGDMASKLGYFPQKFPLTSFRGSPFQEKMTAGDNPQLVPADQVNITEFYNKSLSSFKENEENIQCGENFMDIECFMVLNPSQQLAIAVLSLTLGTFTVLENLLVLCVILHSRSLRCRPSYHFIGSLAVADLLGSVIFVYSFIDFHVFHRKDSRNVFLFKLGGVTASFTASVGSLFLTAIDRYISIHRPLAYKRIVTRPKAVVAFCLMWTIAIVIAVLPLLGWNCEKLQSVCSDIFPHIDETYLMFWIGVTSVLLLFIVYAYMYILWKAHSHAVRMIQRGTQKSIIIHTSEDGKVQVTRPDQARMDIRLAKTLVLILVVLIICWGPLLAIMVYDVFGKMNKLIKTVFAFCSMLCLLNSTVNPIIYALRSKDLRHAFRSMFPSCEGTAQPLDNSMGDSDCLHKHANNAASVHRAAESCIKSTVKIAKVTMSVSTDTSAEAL

SMILES | +/− RCB2 [1] | EC50 [2] [nM] | EC50 [1] [µM] | EC50 [2, 3] [nM] | +/− HCB1 [2]
CN1CCn2c(-c3ccccc3)nc(C(=O)N[C@H](C(=O)O)C(C)(C)C)c2C1 [Compound 281, (S)-3,3-dimethyl-2-(7-methyl-3-phenyl-5,6,7,8-tetrahydroimidazo[1,5-a]pyrazine-1-carboxamido)butanoic acid] | + | > 10000 |  |  | 
Cc1noc([C@@H](NC(=O)c2nc(-c3ccccc3)n3c2CNCC3)C(C)(C)C)n1 [Compound 282, (S)-N-(2,2-dimethyl-1-(3-methyl-1,2,4-oxadiazol-5-yl)propyl)-3-phenyl-5,6,7,8-tetrahydroimidazo[1,5-a]pyrazine-1-carboxamide] |  | > 10000 | > 10 |  | 
CN1CCn2c(-c3ccccc3)nc(C(=O)N[C@H](c3nc(C(C)(C)C)no3)C(C)(C)C)c2C1 [Compound 283, (S)-N-(1-(3-tert-butyl-1,2,4-oxadiazol-5-yl)-2,2-dimethylpropyl)-7-methyl-3-phenyl-5,6,7,8-tetrahydroimidazo[1,5-a]pyrazine-1-carboxamide] | − | > 10000 |  |  | 
CC(C)(C)c1noc([C@@H](NC(=O)c2nc(-c3ccccc3)n3c2CN(C2CC2)CC3)C(C)(C)C)n1 [Compound 284, (S)-N-(1-(3-tert-butyl-1,2,4-oxadiazol-5-yl)-2,2-dimethylpropyl)-7-cyclopropyl-3-phenyl-5,6,7,8-tetrahydroimidazo[1,5-a]pyrazine-1-carboxamide] | − | > 10000 |  |  | 
CN1CCn2c(-c3ccccc3)nc(C(=O)N[C@H](C(N)=O)C(C)(C)C)c2C1 [Compound 285, (S)-N-(1-amino-3,3-dimethyl-1-oxobutan-2-yl)-7-methyl-3-phenyl-5,6,7,8-tetrahydroimidazo[1,5-a]pyrazine-1-carboxamide] |  | > 10000 | > 10 |  | 
CNC(=O)[C@@H](NC(=O)c1nc(/C=C/CN2CCOCC2)n2c1CN(C)CC2)C(C)(C)C [Compound 286, (S,E)-N-(3,3-dimethyl-1-(methylamino)-1-oxobutan-2-yl)-7-methyl-3-(3-morpholinoprop-1-enyl)-5,6,7,8-tetrahydroimidazo[1,5-a]pyrazine-1-carboxamide] | + | > 10000 |  |  | 
CNC(=O)[C@@H](NC(=O)c1nc(/C=C/CN2CCCCC2)n2c1CN(C)CC2)C(C)(C)C [Compound 287, (S,E)-N-(3,3-dimethyl-1-(methylamino)-1-oxobutan-2-yl)-7-methyl-3-(3-(piperidin-1-yl)prop-1-enyl)-5,6,7,8-tetrahydroimidazo[1,5-a]pyrazine-1-carboxamide] | + | > 10000 |  |  | 
CNC(=O)[C@@H](NC(=O)c1nc(/C=C/CN2CCCC2)n2c1CN(C)CC2)C(C)(C)C [Compound 288, (S,E)-N-(3,3-dimethyl-1-(methylamino)-1-oxobutan-2-yl)-7-methyl-3-(3-(pyrrolidin-1-yl)prop-1-enyl)-5,6,7,8-tetrahydroimidazo[1,5-a]pyrazine-1-carboxamide] | − | > 10000 |  |  | 
CNC(=O)[C@@H](NC(=O)c1nc(C(=O)c2ccccc2)n2c1CN(C)CC2)C(C)(C)C [Compound 289, (S)-3-benzoyl-N-(3,3-dimethyl-1-(methylamino)-1-oxobutan-2-yl)-7-methyl-5,6,7,8-tetrahydroimidazo[1,5-a]pyrazine-1-carboxamide] | − | > 10000 |  |  | 
CNC(=O)[C@@H](NC(=O)c1nc(C(=O)Nc2ccccc2)n2c1CN(C)CC2)C(C)(C)C [Compound 290, (S)-N1-(3,3-dimethyl-1-(methylamino)-1-oxobutan-2-yl)-7-methyl-N3-phenyl-5,6,7,8-tetrahydroimidazo[1,5-a]pyrazine-1,3-dicarboxamide] | − | > 10000 |  |  | 
CC(C)(C)CC(=O)c1nc(-c2ccccc2)n2c1CNCC2 [Compound 291, 3,3-dimethyl-1-(3-phenyl-5,6,7,8-tetrahydroimidazo[1,5-a]pyrazin-1-yl)butan-1-one 2,2,2-trifluoroacetate] | − | > 10000 |  |  | 
CN1CCn2c(-c3ccccc3)nc(C(=O)CC(C)(C)C)c2C1 [Compound 292, 3,3-dimethyl-1-(7-methyl-3-phenyl-5,6,7,8-tetrahydroimidazo[1,5-a]pyrazin-1-yl)butan-1-one] | − |  |  | > 10000 | 
CC(C)=CC(=O)c1nc(-c2ccccc2)n2c1CN(C)CC2 [Compound 293, 3-methyl-1-(7-methyl-3-phenyl-5,6,7,8-tetrahydroimidazo[1,5-a]pyrazin-1-yl)but-2-en-1-one] | − |  |  | > 10000 | 
CN1CCn2c(-c3ccccc3)nc(C(=O)CCCc3ccccc3)c2C1 [Compound 294, 1-(7-methyl-3-phenyl-5,6,7,8-tetrahydroimidazo[1,5-a]pyrazin-1-yl)-4-phenylbutan-1-one] | − |  |  | > 10000 | 
CNC(=O)[C@@H](NC(=O)c1nc(C(O)c2ccccc2)n2c1CN(C)CC2)C(C)(C)C (stereo partly drawn) [Compound 295, N-((S)-3,3-dimethyl-1-(methylamino)-1-oxobutan-2-yl)-3-(hydroxy(phenyl)methyl)-7-methyl-5,6,7,8-tetrahydroimidazo[1,5-a]pyrazine-1-carboxamide] |  | > 10000 | > 10 |  | 
CNC(=O)[C@@H](NC(=O)c1nc(C(O)C2CC2)n2c1CN(C)CC2)C(C)(C)C (stereo partly drawn) [Compound 296, 3-(cyclopropyl(hydroxy)methyl)-N-((S)-3,3-dimethyl-1-(methylamino)-1-oxobutan-2-yl)-7-methyl-5,6,7,8-tetrahydroimidazo[1,5-a]pyrazine-1-carboxamide] | + | > 10000 |  |  | 
CNC(=O)[C@@H](NC(=O)c1nc(-c2nccs2)n2c1CN(C)CC2)C(C)(C)C [Compound 297, (S)-N-(3,3-dimethyl-1-(methylamino)-1-oxobutan-2-yl)-7-methyl-3-(thiazol-2-yl)-5,6,7,8-tetrahydroimidazo[1,5-a]pyrazine-1-carboxamide] | + | > 10000 |  |  | 
CNC(=O)[C@@H](NC(=O)c1nc(-c2ccccc2)n2c1CN(c1ncccn1)CC2)C(C)(C)C [Compound 298, N-(3,3-dimethyl-1-(methylamino)-1-oxobutan-2-yl)-3-phenyl-7-(pyrimidin-2-yl)-5,6,7,8-tetrahydroimidazo[1,5-a]pyrazine-1-carboxamide] | + |  |  |  | +
CNC(=O)[C@@H](NC(=O)c1nc(-c2ccccc2)n2c1CN(c1cccc(Cl)n1)CC2)C(C)(C)C [Compound 299, (S)-7-(6-chloropyridin-2-yl)-N-(3,3-dimethyl-1-(methylamino)-1-oxobutan-2-yl)-3-phenyl-5,6,7,8-tetrahydroimidazo[1,5-a]pyrazine-1-carboxamide] | − |  |  |  | +
CNC(=O)[C@@H](NC(=O)c1nc(-c2ccccc2)n2c1CN(c1cncc(Cl)n1)CC2)C(C)(C)C [Compound 300, (S)-7-(6-chloropyrazin-2-yl)-N-(3,3-dimethyl-1-(methylamino)-1-oxobutan-2-yl)-3-phenyl-5,6,7,8-tetrahydroimidazo[1,5-a]pyrazine-1-carboxamide] | − |  |  |  | +
CNC(=O)[C@@H](NC(=O)c1nc(-c2ccccc2)n2c1CN(c1cnccn1)CC2)C(C)(C)C [Compound 301, (S)-N-(3,3-dimethyl-1-(methylamino)-1-oxobutan-2-yl)-3-phenyl-7-(pyrazin-2-yl)-5,6,7,8-tetrahydroimidazo[1,5-a]pyrazine-1-carboxamide] |  | > 10000 | > 10 |  | 
